Source: patent US20150133492A1, “N-desmethyldauricine, A Novel Autophagic Enhancer for Treatment of Cancers and Neurodegenerative Conditions Thereof” (Macau University of Science and Technology, priority 2013, published 2015)

Experiments:
[1] = tested on: Atg7-knockout (Atg7−/−) mouse embryonic fibroblasts; test: GFP-LC3 puncta in Atg7 deficient MEFs; assay type: cell-based
Description: (§1) GFP-LC3 puncta formation was quantified as previously described^15. In brief, both Atg7 wild-type and deficient mouse embryonic fibroblasts (MEFs) grown on coverslips in a 6-well plate were treated with indicated concentrations of N-desmethyldauricine. Both Atg7 wild-type and deficient mouse embryonic fibroblasts were then fixed in 4% paraformaldehyde for 20 minutes at room temperature and then rinsed with PBS. Slides were mounted with FluorSave™ mounting media (Calbiochem, San Diego, Calif.) and examined by fluorescence microscopy. The number of GFP-positive cells with GFP-LC3 puncta formation was examined under the Nikon ECLIPSE 80i microscope. Representative images were captured with CCD digital camera Spot RT3™ (Diagnostic Instruments, Inc., Melville, N.Y.). To quantify for autophagy, the percentage of cells with punctate GFP-LC3 fluorescence was calculated by counting the number of the cells with punctate GFP-LC3 fluorescence in GFP-positive cells. A minimum of 150 cells from 3 randomly selected fields was scored.

HeLa cells = test: RT2 Profiler autophagy PCR array; assay type: cell-based, human
Excerpt: For PCR array analysis, N-desmethyldauricine treated HeLa cells were used to obtain the total RNA by Qiagen RNeasy® Mini Kit (Qiagen). The autophagy pathway specific RT-PCR array was used to evaluate the potential alterations of related genes after N-desmethyldauricine treatments in HeLa cells. The autophagy array comprised 87 genes selected based on their involvement in regulating autophagy induction. There were 5 housekeeping genes served as positive controls. Total RNA was reverse transcripted using the RT2 First Strand Kit. Real-time PCR reactions were carried out on ABI 7500 (Applied Biosystems) using the RT2 SYBR® Green qPCR Mastermix (Qiagen) according to manufacturer's instructions. Data analysis was performed using the Qiagen's integrated web-based software package for the PCR Array System, which automatically performs all ΔΔCt based fold-change calculations from raw threshold cycle data.

[2] = tested on: panel of cancer and normal cells; test: Quantification of autophagy GFP-LC3 puncta in cell panel; assay type: cell-based; conditions: fluorescent microscopy
Description: as §1, with “cells” for “both Atg7 wild-type and deficient mouse embryonic fibroblasts (MEFs)”, “or without 10 μM” for “indicated concentrations”, “N-desmethyldauricine for 4 hours, the cells” for “N-desmethyldauricine. Both Atg7 wild-type and deficient mouse embryonic fibroblasts”

PC 12 cells = test: Crystal violet cell viability assay in PC-12; assay type: cell-based; conditions: 7.5 μM, 24 hours
Description: (§2) For cell viability assay measured by crystal violet staining, PC-12 cells were incubated in 35 mm disc followed by the addition of N-desmethyldauricine at 7.5 μM for 24 hours. The cells were then incubated with crystal violet for 10 minutes followed by a ddH2O wash. The stained cells image was captured by CCD digital camera Spot RT3™ under the Nikon ECLIPSE 80i microscope with 4× magnification. Cell viability was quantified by dissolving stained cells in 10% acetic acid (200 μL/well). The colorimetric reading of the solute mixture was then determined by spectrophotometer at OD 560 nm. The percentage of cell viability was calculated using the following formula: Cell viability (%)=Cells numbertreated/Cells numberDMSO control×100. Data was obtained from three independent experiments.

[3] = tested on: mutant huntingtin overexpressed PC 12 cells; test: Viability of mutant huntingtin overexpressed PC 12 cells; assay type: cell-based; conditions: PC 12, 7.5 μM
Description: as §2
PC 12 cells were transfected transiently with EGFP-HDQ23/55/74 (Q23, Q55, Q74) plasmids for 24 hours using Lipofectamine Plus LTX reagent (Invitrogen) according to the manufacturer's protocol. The transfected cells were then treated with N-desmethyldauricine for 24 hours. The removal of mutant huntingtin, (Q23, Q55, Q74) were then quantitated by immunoblotting with antibody against EGFP.

[4] = tested on: panel of human cancer cells; test: MTT cytotoxicity assay, panel of human cancer cells; assay type: cell-based; conditions: 72 hours, read-out: mean IC50, cell cytotoxicity
Description: The test compound of N-desmethyldauricine was dissolved in DMSO at a final concentration of 100 mmol/L and stored at −20° C. Cytotoxicity was assessed using the 3-(4,5-dimethylthiazol-2-yl)-2,5-diphenyltetrazolium bromide assay as previously described^17. Cell number, 4000-8000 of HeLa (human cervical cancer), MCF-7 (human breast cancer), HepG2 (human liver cancer), Hep3B (human liver cancer), H1299 (human lung cancer), A549 (human lung cancer), PC3 (human prostate cancer), LLC-1 (mouse Lewis lung carcinoma) and LO2 (human normal liver) cells were seeded on 96-well plates per well, respectively. After overnight pre-incubation, the cells were exposed to different concentrations of N-desmethyldauricine (namely […], 0.039 μmol) for 3 days. Subsequently, 10 μL of MTT reagents was added to each well and incubated at 37° C. for 4 hours followed by the addition of 100 μL solubilization buffer (10% SDS in 0.01 mol/L HCl) and overnight incubation. Absorbance at 585 nm was determined from each well on the following day. The percentage of cell viability was calculated using the following formula: Cell viability (%)=Cells number treated/Cells number DMSO control×100. Data was obtained from three independent experiments.

SMILES: COc1cc2c(cc1OC)[C@@H](Cc1ccc(Oc3cc(C[C@H]4NCCc5cc(OC)c(OC)cc54)ccc3O)cc1)N(C)CC2 [N-desmethyldauricine]
- GFP-LC3 puncta formation [1]: not
- gene regulation during autophagy induction (HeLa cells): regulation of a panel of genes, i.e. Igf1, Fam176a, Ulk1, PERK, Cxcr4 and p62
- GFP-LC3 puncta formation [2]: increased
- toxicity in PC 12 cells (PC 12 cells): no toxicity
- cell viability of mutant huntingtin overexpressed PC 12 cells [3]: enhance the cell viability
- huntingtin aggregates-mediated cytotoxicity [3]: reduce
- IC50 [4]: 8.23 to 19.7 µM
